For experiment [1], the target named is T1, Human fibrinogen receptor (αIIbβ3) (Homo sapiens, UniProt P05106+P08514).
T1 construct: Human fibrinogen receptor (αIIbβ3) was purified from outdated platelets; from tissue; host or cells: outdated human platelets
Description: Purified IIb/IIIa receptor assay (solid phase receptor assay, competition with biotinylated vitronectin). Format: binding. The conditions noted are these: read-out: IIb/IIIa IC50. How it is done: PURIFIED IIb/IIIa RECEPTOR ASSAY
Human fibrinogen receptor (αIIbβ3) was purified from outdated platelets. […] Biotinylated human vitronectin was prepared by coupling NHS-biotin from Pierce Chemical Company (Rockford, Ill.) to purified vitronectin as previously described. […] Anti-biotin antibody was obtained from Calbiochem (La Jolla, Calif.). Linbro microtiter plates were obtained from Flow Labs (McLean, Va.). ADP reagent was obtained from Sigma (St. Louis, Mo.).
(§1) Solid Phase Receptor Assays
(§2) The purified human fibrinogen receptor (αIIbβ3) was diluted from stock solutions to 1.0 μg/mL in Tris-buffered saline containing 1.0 mM Ca^++, Mg^++, and Mn^++, pH 7.4 (TBS^+++). The diluted receptor was immediately transferred to Linbro microtiter plates at 100 μL/well (100 ng receptor/well). The plates were sealed and incubated overnight at 4° C. to allow the receptor to bind to the wells. All remaining steps were at room temperature. The assay plates were emptied and 200 μL of 1% RIA grade BSA in TBS^+++ (TBS^+++/BSA) were added to block exposed plastic surfaces. Following a 2 hour incubation, the assay plates were washed with TBS^+++ using a 96 well plate washer. Logarithmic serial dilution of the test compound and controls were made starting at a stock concentration of 2 mM and using 2 nM biotinylated vitronectin in TBS^+++/BSA as the diluent. This premixing of labeled ligand with test (or control) ligand, and subsequent transfer of 50 μL aliquots to the assay plate was carried out with a CETUS Propette robot; the final concentration of the labeled ligand was 1 nM and the highest concentration of test compound was 1.0×10^−4 M. The competition occurred for two hours after which all wells were washed with a plate washer as before. Affinity purified horseradish peroxidase labeled goat anti-biotin antibody was diluted 1:3000 in TBS^+++/BSA and 125 μL were added to each well. After 30 minutes, the plates were washed and incubated with ODD/H2O2 substrate in 100 mM/L citrate buffer, pH 5.0. The plate was read with a microtiter plate reader at a wavelength of 450 nm and when the maximum-binding control wells reached an absorbance of about 1.0, the final A450 were recorded for analysis. The data were analyzed using a macro written for use with the EXCEL™ spreadsheet program. The mean, standard deviation, and % CV were determined for duplicate concentrations. The mean A450 values were normalized to the mean of four maximum-binding controls (no competitor added)(B-MAX). The normalized values were subjected to a four parameter curve fit algorithm, [Robard et al., Int.

Experiment [2] deals with T2, Human vitronectin receptor (αvβ3) (Homo sapiens, UniProt P05106+P06756).
T2 construct: Human vitronectin receptor (αvβ3) was purified from human placenta; from tissue; host or cells: human placenta
Kind of experiment: Vitronectin adhesion assay (solid phase receptor assay, competition with biotinylated vitronectin). The class given is binding. The conditions noted are these: read-out: AvB3 IC50. The protocol: VITRONECTIN ADHESION ASSAY
Assay buffer, OPD substrate tablets, and RIA grade BSA were obtained from Sigma (St. Louis, Mo.). Anti-biotin antibody was obtained from Calbiochem (La Jolla, Calif.). Linbro microtiter plates were obtained from Flow Labs (McLean, Va.). ADP reagent was obtained from Sigma (St. Louis, Mo.).
as §1
as §2, with “vitronectin” for “fibrinogen”, “(αvβ3)” for “(αIIbβ3)”, “TBS^+++(TBS^+++/BSA)” for “TBS^+++ (TBS^+++/BSA)”, “OPD/H2O2” for “ODD/H2O2”, “Citrate” for “citrate”, “algorithm [Rodbard” for “algorithm, [Robard”

The text below walks through data of patent publication US6831199B1, “Pyrimidine compounds and derivatives thereof” (G. D. Searle & Co., priority 1995, dated 2004).

Counter-ions that a name gives are not always drawn.

Take `CCOC(=O)CC(NC(=O)CNC(=O)c1cccc(NC(=N)N)c1)c1ccc2c(c1)OCO2` (racemic) [Example 5, (±)ethyl β-[[2-[[[3-[(aminoiminomethyl)amino]phenyl]carbonyl]amino]acetyl]amino]-1,3-benzodioxole-5-propanoate, trifluoroacetate salt]: the IC50 in experiment [1] came out at 3150 nM; in experiment [2], 227 nM.

With `N=C(N)Nc1cccc(C(=O)NC2CCN(CCC(=O)O)C2=O)c1` (racemic) [Example 42, (±)3-[[[3-[(aminoiminomethyl)amino]phenyl]carbonyl]amino]-2-oxopyrrolidine-1-propanoic acid, trifluoroacetate salt], the IC50 in experiment [1] worked out at 9800 nM; in experiment [2] it was 124 nM.

In the case of `CCOC(=O)CC(NC(=O)CNC(=O)c1cccc(NC(=N)N)c1)c1ccoc1` (racemic) [Example 51, (±)ethyl β-[[2-[[[3-[(aminoiminomethyl)amino]phenyl]carbonyl]amino]acetyl]amino]furan-3-propanoate, trifluoroacetate salt], the IC50 is over 100000 nM in experiment [1] and 9730 nM in experiment [2].

Consider `COC(=O)CC(NC(=O)CNC(=O)c1cccc(NC(=N)N)c1)c1ccsc1` (racemic) [Example 57, (±)methyl β-[[2-[[[3-[(aminoiminomethyl)amino]phenyl]carbonyl]amino]acetyl]amino]thiophene-3-propanoate, trifluoroacetate salt], for which the IC50 in experiment [1] amounted to 15300 nM; in experiment [2], 1340 nM.

With `N=C(N)NCc1cccc(C(=O)NCC(=O)NC(CC(=O)O)c2cccnc2)c1` (racemic) [Example 85, (±)β-[[2-[[[3-[[(aminoiminomethyl)amino]methyl]phenyl]carbonyl]amino]acetyl]amino]pyridine-3-propanoic acid, bis(trifluoroacetate)salt], the IC50 in experiment [1] stood at 8.07 nM; in experiment [2], 6.65 nM.

On to `N=C(N)Nc1cccc(C(=O)NCC(=O)NC(CC(=O)O)C(=O)NCCO)c1` (racemic) [Example 89, (±)3-[[2-[[[3-[(aminoiminomethyl)amino]phenyl]carbonyl]amino]acetyl]amino]-4-[(2-hydroxyethyl)amino]-4-oxobutanoic acid, trifluoroacetate salt], for which the IC50 came to 9830 nM in experiment [1] and 1240 nM in experiment [2].

As to `CCOC(=O)CC(NC(=O)CNC(=O)c1cccc(NC(=N)N)c1)c1cnc2ccccc2c1` (racemic) [Example 98, (±)ethyl β-[[2-[[[3-[(aminoiminomethyl)amino]phenyl]carbonyl]amino]acetyl]amino]-quinoline-3-propanoate, bis(trifluoroacetate)salt], the IC50 in experiment [1] amounted to 500 nM; in experiment [2], 146 nM.

Turning to `N=C(N)Nc1cccc(C(=O)NCC(=O)NC(CC(=O)O)c2ccc(Cl)c(Cl)c2)c1` (racemic) [Example 175, (±)β-[[2-[[[3-[(aminoiminomethyl)amino]phenyl]carbonyl]amino]acetyl]amino]-3,4-dichlorobenzenepropanoic acid, trifluoroacetate salt], the IC50 in experiment [1] stood at 205 nM; in experiment [2], 2.12 nM.

Regarding `O=C(O)CC(NC(=O)CNC(=O)c1cccc(NC2=NCCN2)c1)c1cc(C(F)(F)F)cc(C(F)(F)F)c1` (racemic) [Example 179, (±)β-[[2-[[[3-[(4,5-dihydro-1H-imidazol-2-yl)amino]phenyl]carbonyl]amino]acetyl]-amino]-3,5-bis(trifluoromethyl)benzenepropanoic acid, trifluoroacetate salt], the IC50 in experiment [1] worked out at 927 nM; in experiment [2] it was 2.72 nM.

Turning to `Cc1ccc(C)c(C(CC(=O)O)NC(=O)CNC(=O)c2cccc(NC(=N)N)c2)c1` (racemic) [Example 181, (±)β-[[2-[[[3-[(aminoiminomethyl)amino]phenyl]carbonyl]amino]acetyl]amino]-2,5-dimethylbenzenepropanoic acid, trifluoroacetate salt], the IC50 in experiment [1] was 22800 nM; in experiment [2], 132 nM.

In the case of `N=C(N)Nc1cccc(C(=O)NCC(=O)NC(CC(=O)O)c2cccc(Cl)c2)c1` (racemic) [Example 183, (±)β-[[2-[[[3-[(aminoiminomethyl)amino]phenyl]carbonyl]amino]acetyl]amino]-3-chlorobenzenepropanoic acid, trifluoroacetate salt], the values for the IC50 in experiment [1] and in experiment [2] were 258 nM and 1.58 nM, respectively.

In the case of `N=C(N)Nc1cccc(C(=O)NCC(=O)NC(CC(=O)O)c2cccc(Br)c2)c1` (racemic) [Example 185, (±)β-[[2-[[[3-[(aminoiminomethyl)amino]phenyl]carbonyl]amino]acetyl]amino]-3-bromobenzenepropanoic acid, trifluoroacetate salt], the IC50 was found to be 166 nM in experiment [1] and 1.47 nM in experiment [2].

Regarding `N=C(N)Nc1cccc(C(=O)NCC(=O)NC(CC(=O)O)c2ccc(Br)cc2)c1` (racemic) [Example 187, (±)β-[[2-[[[3-[(aminoiminomethyl)amino]phenyl]carbonylamino]acetyl]amino]-4-bromobenzenepropanoic acid, trifluoroacetate salt], the IC50 in experiment [1] amounted to 264 nM; in experiment [2] it was 1.31 nM.

Consider `O=C(O)CC(NC(=O)CNC(=O)c1cccc(NC2=NCCCCC2)c1)c1cc(Cl)cc(Cl)c1` (racemic) [Example 189, (±)β-[[2-[[[3-[(3,4,5,6-tetrahydro-2H-azepin-7-yl)amino]phenyl]carbonyl]amino]acetyl]amino]-3,5-dichlorobenzenepropanoic acid, trifluoroacetate salt], for which the IC50 in experiment [1] is 1980 nM; in experiment [2], 4.03 nM.

As to `COc1cc(OC)cc(C(CC(=O)O)NC(=O)CNC(=O)c2cccc(NC(=N)N)c2)c1` (racemic) [Example 195, (±)β-[[2-[[[3-[(aminoiminomethyl)amino]phenyl]carbonyl]amino]acetyl]amino]-3,5-dimethoxybenzenepropanoic acid, trifluoroacetate salt], the IC50 in experiment [1] is 98 nM; in experiment [2], 1.09 nM.

Regarding `CNC(=NC#N)Nc1cccc(C(=O)NCC(=O)NC(CC(=O)O)c2cc(Cl)cc(Cl)c2)c1` (racemic) [Example 198, (±)3,5-dichloro-β-[[2-[[[3-[(cyanoimino)(methylamino)methyl]amino]phenyl]carbonyl]amino]acetyl]amino]benzenepropanoic acid], the IC50 in experiment [1] came out at 37800 nM; in experiment [2] it was 114 nM.

Take `CNC(=NC(N)=O)Nc1cccc(C(=O)NCC(=O)NC(CC(=O)O)c2cc(Cl)cc(Cl)c2)c1` (racemic) [Example 201, (±)β-[[2-[[[3-[[[(aminocarbonyl)imino)methylamino)methyl]amino]phenyl]carbonyl]amino]acetyl]amino]-3,5-dichlorobenzenepropanoic acid]: the results for the IC50 in experiment [1] and in experiment [2] were 10800 nM and 58.1 nM, respectively.
